In experiment [1] the target is T1, recombinant, purified human Caspase-3 (Homo sapiens, UniProt P42574).
T1 sequence (P42574 29-175 limits assumed): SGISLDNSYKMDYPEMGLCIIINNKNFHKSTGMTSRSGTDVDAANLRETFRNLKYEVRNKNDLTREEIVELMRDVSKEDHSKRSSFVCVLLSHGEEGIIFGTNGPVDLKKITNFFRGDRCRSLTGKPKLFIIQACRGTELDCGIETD
T1 sequence (P42574 176-277 limits assumed): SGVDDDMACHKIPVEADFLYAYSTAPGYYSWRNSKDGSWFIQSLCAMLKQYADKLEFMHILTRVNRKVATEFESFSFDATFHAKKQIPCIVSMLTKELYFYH
The experiment can be described thus: Caspase-3 enzyme assay, fluorogenic substrate cleavage. The format is biochemical. The following applies: second order rate constant of enzyme inactivation; substrate Acetyl-Asp-Glu-Val-Asp-amino-4-methylcoumarin. From the text: (§1) The assays for caspase inhibition are based on the cleavage of a fluorogenic substrate by recombinant, purified human Caspases -1, -3, -7 or -8. The assays are run in essentially the same way as those reported by Garcia-Calvo et al. (J. Biol. Chem. 273 (1998), 32608-32613), using a substrate specific for each enzyme. The substrate for Caspase-1 is Acetyl-Tyr-Val-Ala-Asp-amino-4-methylcoumarin. The substrate for Caspases -3, -7 and -8 is Acetyl-Asp-Glu-Val-Asp-amino-4-methylcoumarin.
(§2) The observed rate of enzyme inactivation at a particular inhibitor concentration, kobs, is computed by direct fits of the data to the equation derived by Thornberry et al. (Biochemistry 33 (1994), 3943-3939) using a nonlinear least-squares analysis computer program (PRISM 2.0; GraphPad software). To obtain the second order rate constant, kinact, kobs values are plotted against their respective inhibitor concentrations and kinact values are subsequently calculated by computerized linear regression.

Experiment [2] addresses T2, recombinant, purified human Caspase-1 (Homo sapiens, UniProt P29466).
T2 sequence (P29466 120-297 limits assumed): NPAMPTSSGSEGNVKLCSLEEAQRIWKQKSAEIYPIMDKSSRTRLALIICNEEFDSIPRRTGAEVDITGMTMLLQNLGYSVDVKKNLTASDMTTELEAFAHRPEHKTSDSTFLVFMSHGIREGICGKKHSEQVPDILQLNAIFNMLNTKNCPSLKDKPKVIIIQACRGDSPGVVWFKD
T2 sequence (P29466 317-404 limits assumed): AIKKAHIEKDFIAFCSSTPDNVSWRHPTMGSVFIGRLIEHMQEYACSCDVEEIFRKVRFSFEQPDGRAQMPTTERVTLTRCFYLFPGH
As to the kind of experiment: Caspase-1 enzyme assay, fluorogenic substrate cleavage. The format is biochemical. The following applies: second order rate constant of enzyme inactivation; substrate Acetyl-Tyr-Val-Ala-Asp-amino-4-methylcoumarin.
Source text: as §1, §2

For experiment [3], the target named is T3, recombinant, purified human Caspase-7 (Homo sapiens, UniProt P55210).
T3 sequence (P55210 24-198 limits assumed): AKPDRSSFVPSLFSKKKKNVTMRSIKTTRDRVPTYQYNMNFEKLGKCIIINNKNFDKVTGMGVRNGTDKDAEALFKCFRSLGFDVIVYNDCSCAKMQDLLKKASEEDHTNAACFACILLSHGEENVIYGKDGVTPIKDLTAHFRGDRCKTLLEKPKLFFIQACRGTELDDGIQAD
T3 sequence (P55210 207-303 limits assumed): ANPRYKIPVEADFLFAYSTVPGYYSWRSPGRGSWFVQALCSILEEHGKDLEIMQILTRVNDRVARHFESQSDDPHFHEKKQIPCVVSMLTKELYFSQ
The experiment can be described thus: Caspase-7 enzyme assay, fluorogenic substrate cleavage. The following applies: second order rate constant of enzyme inactivation; substrate Acetyl-Asp-Glu-Val-Asp-amino-4-methylcoumarin. The format is biochemical.
Source text: as §1, §2

Experiment [4] concerns IL-1β secretion from peripheral blood mononuclear cells (PBMC). The experiment can be described thus: Inhibition of IL-1β secretion from PBMC. The format is cell-based. The following applies: human PBMC, LPS 50 ng/ml, 16-18 h, mature IL-1β in supernatant. As for the experimental part: Processing of pre-IL-1β by caspase-1 can be measured in cell culture using a variety of cell sources. Human PBMC obtained from healthy donors provides a mixed population of lymphocyte and mononuclear cells that produce a spectrum of interleukins and cytokines in response to many classes of physiological stimulators.
The test compound is dissolved in Dimethyl Sulphoxide (DMSO, Sigma #D-2650) to give a 100 mM stock solution. This is diluted in complete medium consisting of RPMI containing 10% heat inactivated FCS (Gibco BRL #10099-141), 2 mM L-Glutamine (Sigma, #G-7513), 100 U penicillin and 100 μg/ml streptomycin (Sigma #P-7539). The final concentration range of test compound is from 100 μM down to 6 nM over eight dilution steps. The highest concentration of test compound is equivalent to 0.1% DMSO in the assay.
Human PBMC are isolated from Buffy Coats obtained from the blood bank using centrifugation on Ficoll-Paque leukocyte separation medium (Amersham, #17-1440-02) and the cellular assay is performed in a sterile 96 well flat-bottomed plate (Nunc). Each well contains 100 μl of the cell suspension, 1×10^5 cells, 50 μl of compound dilutions and 50 μl of LPS (Sigma #L-3012) at 50 ng/ml final concentration. Controls consist of cells +/− LPS stimulation and a serial dilution of DMSO diluted in the same way as compound. […]

In experiment [5] the target is recombinant, purified human Caspase-8 (Homo sapiens, UniProt Q14790). As to the kind of experiment: Caspase-8 enzyme assay, fluorogenic substrate cleavage. The format is biochemical. The following applies: second order rate constant of enzyme inactivation; substrate Acetyl-Asp-Glu-Val-Asp-amino-4-methylcoumarin.
Source text: as §1, §2

The subject of a further experiment is Jurkat E6.1 cells. The experiment can be described thus: Anti-Fas induced apoptosis assay. The format is cell-based. The following applies: Homo sapiens, anti-Fas antibody CH-11 10 ng/ml, 16-18 hrs, DNA fragmentation. From the text:
Cellular apoptosis may be induced by the binding of Fas ligand (FasL) to its receptor, CD95 (Fas). CD95 is one of a family of related receptors, known as death receptors, which can trigger apoptosis in cells via activation of the caspase enzyme cascade. The process is initiated by the binding of the adapter molecule FADD/MORT-1 to the cytoplasmic domain of the CD-95 receptor-ligand complex. Caspase-8 then binds FADD and becomes activated, initiating a cascade of events that involve the activation of downstream caspases and subsequent cellular apoptosis. […]
Jurkat E6.1 cells are cultured in complete medium consisting of RPMI-1640 (Sigma No)+10% foetal calf serum (Gibco BRL No. 10099-141)+2 mM L-glutamine (Sigma No. G-7513). […] The cells are counted and the density adjusted to 2×10^6 cells/ml with complete medium. […]
Apoptosis of the cells is measured by the quantitation of DNA fragmentation using a ‘Cell Death Detection Assay’ from Boehringer-Mannheim, No. 1544 675. […] OD405 nm is measured 20 minutes after addition of the final substrate in a SPECTRAmax Plus plate reader (Molecular Devices). OD405 nm is plotted versus compound concentration and the IC50 values for the compounds are calculated using the curve-fitting program SOFTmax Pro (Molecular Devices) using the four parameter fit option.

Data on six compounds can be found in US7968716B2, “Caspase inhibitors and uses thereof” (Vertex Pharmaceuticals Incorporated, priority 2000, dated 2011).

pIC50: −log10 of the molar value.

recombinant, purified human Caspase-8, sequence (Q14790 217-374 limits assumed): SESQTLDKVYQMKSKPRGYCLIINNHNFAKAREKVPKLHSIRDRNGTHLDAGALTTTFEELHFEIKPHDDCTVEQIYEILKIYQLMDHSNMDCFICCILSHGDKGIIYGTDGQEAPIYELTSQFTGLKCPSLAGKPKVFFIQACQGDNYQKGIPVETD
recombinant, purified human Caspase-8, sequence (Q14790 385-479 limits assumed): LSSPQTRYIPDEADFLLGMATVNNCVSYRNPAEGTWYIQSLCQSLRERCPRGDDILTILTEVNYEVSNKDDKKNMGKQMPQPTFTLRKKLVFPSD

For the compound `O=C(O)CC(NC(=O)[C@@H]1CCc2nc3ccccc3c(=O)n21)C(=O)CF` (stereo partly drawn) [Example 1, [3S/R(1S)]-3-(2,3-Dihydro-1H-9-oxo-pyrrolo[2,1-b]quinazolin-1-carboxamido)-5-fluoro-4-oxo-pentanoic acid], the “Kinact, Caspase-3 Activity” value in experiment [1] stood at 160500 M⁻¹ s⁻¹. Take `O=C(O)CC(NC(=O)[C@@H]1CCCc2nc3ccccc3c(=O)n21)C(=O)CF` (stereo partly drawn) [Example 2, [3S/R(9S)]-5-Fluoro-4-oxo-3-(11-oxo-6,7,8,9-tetrahydro-11H-pyrido[2,1-b]quinazolin-9-carboxamido)-pentanoic acid]: the “Kinact, Caspase-1 Activity” value in experiment [2] was 455000 M⁻¹ s⁻¹. In the case of `O=C(O)CC(NC(=O)[C@@H]1CCc2cc3ccccc3c(=O)n21)C(=O)CF` (stereo partly drawn) [Example 3, [3S/R(3S)]-3-(2,3-Dihydro-1H-5-oxo-pyrrolo[1,2-b]isoquinolin-3-carboxamido)-5-fluoro-4-oxo-pentanoic acid], the “Kinact, Caspase-7 Activity” value in experiment [3] came out at 229000 M⁻¹ s⁻¹. As to `O=C(O)CC(NC(=O)[C@@H]1CCCc2cc3ccccc3c(=O)n21)C(=O)CF` (stereo partly drawn) [Example 4, [3S/R(4S)]-5-Fluoro-4-oxo-3-(6-oxo-1,2,3,4-tetrahydro-6H-benzo[b]quinolizin-4-carboxamido)-pentanoic acid], the pIC50 in experiment [4] is 6.24. On to `O=C(O)CC(NC(=O)[C@@H]1CCCn2c(=O)c3ccccc3c(=O)n21)C(=O)CF` (stereo partly drawn) [Example 5, [3S/R(1S)]-3-(6,11-Dioxo-1,2,3,4-tetrahydro-pyridazino[1,2-b]phthalazin-1-carboxamido)-5-fluoro-4-oxo-pentanoic acid], for which the “Caspase-8 Kinact” value in experiment [5] amounted to 82000 M⁻¹ s⁻¹. As to `O=C(O)CC(NC(=O)[C@@H]1CCCn2c(=O)c3nccnc3c(=O)n21)C(=O)CF` (stereo partly drawn) [Example 6, [3S/R(5S)]-(9,10-Dioxo-5,6,7,8,9,10-hexahydro-1,4,8a,10a-tetraazaanthracene-5-carboxamido)-5-fluoro-4-oxo-3-pentanoic acid], the negative-log IC50 (pIC50) in the experiment on Jurkat E6.1 cells is 6.77.

As usually defined, the pIC50 is the negative decadic logarithm of the IC50, by convention in mol/L. Low values mean a high IC50, high ones a low IC50.
